Laboratory results taken from ChEMBL document CHEMBL1201862, “PubChem BioAssay data set” (2004).
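Dose response: 5 concentrations. Exposure: 48 h. Format: 96-well plates. Endpoint: linear interpolation; highest concentration if not reached. GI50 is the concentration that inhibits growth by half.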 Calls of active or inactive are those of the source. No stated cut-off is given here; in the data, active = GI50 up to about 1.1 µM and inactive = higher.

Legend:
Test in all cases: DTP human tumour cell line panel, 48 h
DU-145 = test system: DU-145
Hs-578T = test system: Hs-578T
HCT-116 = test system: HCT-116
OVCAR-5 = test system: OVCAR-5
NCI-H23 = test system: NCI-H23
UO-31 = test system: UO-31
CAKI-1 = test system: CAKI-1
HCT-15 = test system: HCT-15
HOP-92 = test system: HOP-92
TK-10 = test system: TK-10
BT-549 = test system: BT-549
RPMI-8226 = test system: RPMI-8226
A549 = test system: A549
T47D = test system: T47D
ACHN = test system: ACHN
UACC-62 = test system: UACC-62
UACC-257 = test system: UACC-257
NCI/ADR-RES = test system: NCI/ADR-RES
SF-539 = test system: SF-539

Structure (SMILES) | GI50 (DU-145) | GI50 (Hs-578T) | GI50 (HCT-116) | GI50 (OVCAR-5) | GI50 (NCI-H23) | GI50 (UO-31) | GI50 (CAKI-1) | GI50 (HCT-15) [µM] | GI50 (HOP-92) | GI50 (TK-10) | GI50 (BT-549) | GI50 (RPMI-8226) | GI50 (A549) | GI50 (T47D) | GI50 (ACHN) | GI50 (UACC-62) | GI50 (UACC-257) | GI50 (NCI/ADR-RES) | GI50 (SF-539)
N=C(N)Nc1ccc(CC(N)NCC(=O)O)cc1 (centres undefined) | > 25 µM (inactive) | > 25 µM (inactive) | > 25 µM (inactive) | > 25 µM (inactive) | > 25 µM (inactive) | > 25 µM (inactive) | > 25 µM (inactive) | > 25 | > 25 µM (inactive) | > 25 µM (inactive) | > 25 µM (inactive) | > 25 µM (inactive) | > 25 µM (inactive) | > 25 µM (inactive) | > 25 µM (inactive) | > 25 µM (inactive) | > 25 µM (inactive) | > 25 µM (inactive) | 
Br[C@@H]1[C@H]2c3nc4ccccc4nc3[C@@H]1C[C@H]2Br | 53 µM (inactive) | > 100 µM (inactive) | 59.7 µM (inactive) | > 100 µM (inactive) | 58.3 µM (inactive) | 41.4 µM (inactive) | > 100 µM (inactive) | 61.5 | 41.2 µM (inactive) | > 100 µM (inactive) | 65.5 µM (inactive) |  | 58.9 µM (inactive) | 36.8 µM (inactive) | > 100 µM (inactive) | > 100 µM (inactive) | 83.6 µM (inactive) | 51.4 µM (inactive) | 
COc1cc(N(CCC#N)CCC#N)ccc1C(/N=N/c1cccc([N+](=O)[O-])c1)=N\NC(=O)c1ccc(C)cc1 | > 100 µM (inactive) | > 100 µM (inactive) | 50.5 µM (inactive) | > 100 µM (inactive) | 37.1 µM (inactive) | 71 µM (inactive) | > 100 µM (inactive) | 80.2 | 33.9 µM (inactive) | 31.7 µM (inactive) | 22 µM (inactive) | 18.6 µM (inactive) | > 100 µM (inactive) | 27.8 µM (inactive) | > 100 µM (inactive) | > 100 µM (inactive) | 14.5 µM (inactive) | 67.5 µM (inactive) | 
Cc1cn(C2CC(N=[N+]=[N-])C(CO[Si](C)(C)C(C)(C)C)O2)c(=O)[nH]c1=O (centres undefined) | 21.6 µM (inactive) | 17.6 µM (inactive) | 16.1 µM (inactive) | 23 µM (inactive) | 21.1 µM (inactive) | 16.6 µM (inactive) | 16.4 µM (inactive) | 18.3 |  | 16.3 µM (inactive) | 10.7 µM (inactive) | 17.9 µM (inactive) | 27.2 µM (inactive) | 29.4 µM (inactive) | 21.8 µM (inactive) | 14.6 µM (inactive) | 21.6 µM (inactive) | 16.6 µM (inactive) | 18 µM (inactive)
CC(NC(=O)C(C)C(=O)Nc1ccc(C(F)(F)F)cc1)C(N)=O (centres undefined) | > 100 µM (inactive) | > 100 µM (inactive) | > 100 µM (inactive) | > 100 µM (inactive) | > 100 µM (inactive) | > 100 µM (inactive) | > 100 µM (inactive) | > 100 | > 100 µM (inactive) |  | > 100 µM (inactive) | > 100 µM (inactive) | > 100 µM (inactive) | > 100 µM (inactive) | > 100 µM (inactive) | > 100 µM (inactive) | > 100 µM (inactive) | > 100 µM (inactive) | > 100 µM (inactive)
